≈ marks a conversion by molar mass, not a printed value.
What was measured:
[1] = Pharmacokinetic experiment in rats (plasma cariprazine, LC-MS/MS); conditions: intramuscular injection at 9 mg/kg
Experimental: In the whole experiment, the animals from the intramuscular injection group were given ad libitum access to food and water, and those from the oral intragastrical group were fasted overnight before administration and given access to food 4 h after administration.
Plasma sample collection: about 150 μL of blood was collected from the jugular vein (whole blood was centrifuged within 30 min to isolate plasma) and placed in a tube containing anticoagulant EDTA-K2, and after treatment, plasma was stored in a freezer at −70° C. before use.
Pretreatment of plasma sample: to 30 μL of plasma sample was added 200 μL of internal standard solution (40 ng/mL Glipizide acetonitrile solution); the mixture was vortexed for 1 min and centrifuged at 5800 rpm at 4° C. for 10 min; 100 μL of supernatant was transferred to a new plate and 1 μL of solution was taken for LC-MS/MS analysis.
Secondary mass spectrometry analysis was performed using an electrospray ion source (Turbo spray) in the multiple reaction monitoring (MRM) mode under the positive ion detection mode.

[2] = In vitro dissolution simulation experiment, pH 7.4 phosphate buffer; type: physicochemical; conditions: 37° C.
Experimental: The mixtures were shaken at 37° C.

physchem = conditions: 37 °C, thermodynamic from solid
Experimental: The mixtures were shaken at 37° C. for 24 h and filtered through 0.45 μm aqueous-phase filter membranes. The filtrates were collected and the solubility was determined by high performance liquid chromatography. pH3, pH4, pH5 and pH6 represent acetate buffer solutions, and pH7, pH7.4, pH8 and pH9 represent phosphate buffer solutions.

[3] = humans; cited from earlier work

Row | solubility at 24 h (physchem; pH 5, aqueous buffer) [mg/mL] | solubility at 24 h (physchem; pH 3, aqueous buffer) [mg/mL] | solubility at 24 h (physchem; pH 7, aqueous buffer) [mg/mL] | solubility at 24 h (physchem; pH 9, aqueous buffer) [mg/mL] | SMILES | length of release among the crystalline forms [1] | Concentration, 1 (h) [2] [µg/mL] | Concentration, 5 (h) [2] [µg/mL] | Concentration, 7 (h) [2] [µg/mL] | Concentration, 24 (h) [2] [µg/mL] | cariprazine clearance [3] [days]
1 | – | – | – | – | CN(C)C(=O)NC1CCC(CCN2CCN(c3cccc(Cl)c3Cl)CC2)CC1 (centres unmarked) [Crystalline form A of cariprazine embonate] | best length of release | 1.0 | 4.1 | 3.9 | 2.5 | –
2 | 10.8 | – | – | – | CN(C)C(=O)N[C@H]1CC[C@H](CCN2CCN(c3cccc(Cl)c3Cl)CC2)CC1.Cl [Cariprazine hydrochloride] | – | – | – | – | – | –
3 | 0.243 (≈ 568 µM) | 1.36 (≈ 3190 µM) | 0.0032 (≈ 7.49 µM) | 0.0014 (≈ 3.28 µM) | CN(C)C(=O)N[C@H]1CC[C@H](CCN2CCN(c3cccc(Cl)c3Cl)CC2)CC1 [Cariprazine, cariprazine] | – | – | – | – | – | 3 to 9
4 | – | – | – | – | CN(C)C(=O)NC1CCC(CCN2CCN(c3cccc(Cl)c3Cl)CC2)CC1 (centres unmarked) [Crystalline form G of cariprazine embonate] | – | 1.30 | 2.28 | 1.84 | 8.05 | –
5 | – | – | – | – | CN(C)C(=O)NC1CCC(CCN2CCN(c3cccc(Cl)c3Cl)CC2)CC1 (centres unmarked) [Amorphous cariprazine embonate, cariprazine embonate] | – | 11.94 | 9.58 | 7.08 | 9.9 | –
6 | – | – | – | – | CN(C)C(=O)NC1CCC(CCN2CCN(c3cccc(Cl)c3Cl)CC2)CC1 (centres unmarked) [Crystalline form B of cariprazine embonate] | – | 5.3 | 5.2 | 2.2 | 1.7 | –

Reference: US12653821B2 (SHANGHAI BOCIMED PHARMACEUTICAL CO., LTD., priority 2020, dated 2026)
